Measured values taken from US4735959A, “Carboxylic acid amides and pharmaceutical compositions containing them” (Dr. Karl Thomae GmbH, priority 1981, dated 1988).
Like-named read-outs stand apart in the source and are kept apart here.

Tested on: blood-sugar
Test: Blood-sugar lowering activity in starved female rats after oral administration
Type: in vivo
Conditions: for change in vivo at 1 mg/kg / change in vivo at 5 mg/kg / change in vivo at 0.6 mg/kg / change in vivo at 10 mg/kg: Rattus norvegicus, po, read-out: Blood-sugar lowering activity, percent as compared with the controls; for change in vivo at 0.6 mg/kg: 0.6 mg/kg orally; for change in vivo at 10 mg/kg: 10 mg/kg orally (footnote *)
Description: The blood-sugar lowering activity of the test compounds was determined in home-bred female rats with weights of from 180 to 220 grams. Twenty-four hours before starting the test the animals were starved. Before the test the compounds were suspended in 1.5% methyl cellulose and administered to the animals by means of an esophageal tube.
Blood was taken from the retroorbital plexus vein before administration of the test compounds as well as each of 1, 2, 3, and 4 hours after administration. Fifty microliters of each sample were deproteinized with 0.5 ml of 0.33N perchloric acid and centrifuged. The glucose content was determined in the supernatant according to the Hexokinase method by means of an analysis photometer. The statistical evalulation was performed with the t-test according to Student with p=0.05.

[1] = 1 mg/kg orally, 1 hour, n.s. = not statistically significant
[2] = 1 mg/kg orally, 2 hours, n.s. = not statistically significant
[3] = 1 mg/kg orally, 3 hours, n.s. = not statistically significant
[4] = 1 mg/kg orally, 4 hours, n.s. = not statistically significant
[5] = 5 mg/kg orally, 1 hour, n.s. = not statistically significant
[6] = 5 mg/kg orally, 2 hours, n.s. = not statistically significant
[7] = 5 mg/kg orally, 3 hours, n.s. = not statistically significant
[8] = 5 mg/kg orally, 4 hours, n.s. = not statistically significant
[9] = 3 hours, n.s. = not statistically significant
[10] = 4 hours, n.s. = not statistically significant

| SMILES | change in vivo at 1 mg/kg [1] [%] | change in vivo at 1 mg/kg [2] [%] | change in vivo at 1 mg/kg [3] [%] | change in vivo at 1 mg/kg [4] [%] | Blood-sugar lowering activity, percent as compared with the controls [4] | change in vivo at 5 mg/kg [5] [%] | change in vivo at 5 mg/kg [6] [%] | change in vivo at 5 mg/kg [7] [%] | change in vivo at 5 mg/kg [8] [%] | change in vivo at 0.6 mg/kg (1 hour) [%] | change in vivo at 0.6 mg/kg (2 hours) [%] | change in vivo at 0.6 mg/kg (3 hours) [%] | change in vivo at 0.6 mg/kg (4 hours) [%] | Blood-sugar lowering activity, percent as compared with the controls [3] | Blood-sugar lowering activity, percent as compared with the controls [8] | change in vivo at 10 mg/kg (1 hour) [%] | change in vivo at 10 mg/kg (2 hours) [%] | change in vivo at 10 mg/kg [9] [%] | change in vivo at 10 mg/kg [10] [%] |
| --- | --- | --- | --- | --- | --- | --- | --- | --- | --- | --- | --- | --- | --- | --- | --- | --- | --- | --- | --- |
| CC(NC(=O)Cc1ccc(C(=O)O)cc1)c1ccccc1N1CCCCC1 (single isomer, unassigned; (+)) [AU, (+)-4-[(1-(2-Piperidino-phenyl)-1-ethyl)-aminocarbonylmethyl]-benzoic acid] | -41 | -22 | -17 | -15 | – | – | – | – | – | – | – | – | – | – | – | – | – | – | – |
| CCCC(NC(=O)Cc1ccc(C(=O)O)cc1)c1ccccc1N1CCCCC1 (single isomer, unassigned; (+)) [K, (+)-4-[(1-(2-Piperidino-phenyl)-1-butyl)-aminocarbonylmethyl]-benzoic acid] | -41 | -43 | -38 | -31 | – | – | – | – | – | – | – | – | – | – | – | – | – | – | – |
| CCCC(NC(=O)Cc1ccc(C(=O)OCC)cc1)c1ccccc1N1CCCCC1 (single isomer, unassigned; (+)) [L, (+)-4-[(1-(2-Piperidino-phenyl)-1-butyl)-aminocarbonylmethyl]-benzoic acid ethyl ester] | -14 | -18 | -14 | – | n.s. | -42 | -45 | -31 | -22 | – | – | – | – | – | – | – | – | – | – |
| O=C(Cc1ccc(C(=O)O)cc1)NC(c1ccccc1)c1ccccc1N1CCCCC1 (single isomer, unassigned; (-)) [AW, (-)-4-[(2-Piperidino-benzhydryl)-aminocarbonylmethyl]-benzoic acid] | – | – | – | – | – | – | – | – | – | -40 | -34 | -31 | -26 | – | – | – | – | – | – |
| O=C(Cc1ccc(C(=O)O)cc1)NC(c1cccc(Cl)c1)c1ccccc1N1CCCCC1 (stereo not drawn) [AF, 4-[(α-(3-Chloro-phenyl)-2-piperidino-benzyl)-aminocarbonylmethyl]-benzoic acid] | -17 | -19 | – | – | n.s. | -43 | -39 | -30 | -26 | – | – | – | – | n.s. | – | – | – | – | – |
| O=C(Cc1ccc(C(=O)O)cc1)NC(c1ccncc1)c1ccccc1N1CCCCC1 (stereo not drawn) [AH, 4-[(2-Piperidino-α-(4-pyridyl)-benzyl)-aminocarbonylmethyl]-benzoic acid] | -26 | -14 | – | – | n.s. | -41 | -37 | -20 | – | – | – | – | – | n.s. | n.s. | – | – | – | – |
| O=C(Cc1ccc(C(=O)O)cc1)NC(c1ccccc1)c1c(Cl)cccc1N1CCCCC1 (stereo not drawn) [AJ, 4-[(6-Chloro-α-phenyl-2-piperidino-benzyl)-aminocarbonylmethyl]-benzoic acid] | -35 | -34 | -28 | -20 | – | -44 | -40 | -39 | -40 | – | – | – | – | – | – | – | – | – | – |
| O=C(O)C=Cc1ccc(CC(=O)NC(c2ccccc2)c2ccccc2N2CCCCC2)cc1 (stereo not drawn) [AK, 4-[(α-Phenyl-2-piperidino-benzyl)-aminocarbonylmethyl]-cinnamic acid] | -32 | -19 | -10 | -17 | – | – | – | – | – | – | – | – | – | – | – | -48 | -47 | -40 | -45 |
| O=C(O)CCc1ccc(CC(=O)NC(c2ccccc2)c2ccccc2N2CCCCC2)cc1 (stereo not drawn) [AL, 3-{4-[(α-Phenyl-2-piperidino-benzyl)-aminocarbonylmethyl]-phenyl}-propionic acid] | -40 | -31 | -23 | -12 | – | – | – | – | – | – | – | – | – | – | – | -43 | -41 | -38 | -34 |
| O=C(Cc1ccc(C(=O)O)cc1)NC(c1ccccc1)c1ccc(Cl)cc1N1CCCCC1 (stereo not drawn) [AM, 4-[(4-Chloro-α-phenyl-2-piperidino-benzyl)-aminocarbonylmethyl]-benzoic acid] | -11 | -13 | – | – | n.s. | -34 | -35 | -32 | -29 | – | – | – | – | n.s. | – | – | – | – | – |
| Cc1cccc(N2CCCCC2)c1C(NC(=O)Cc1ccc(C(=O)O)cc1)c1ccccc1 (stereo not drawn) [AN, 4-[(6-Methyl-α-phenyl-2-piperidino-benzyl)-aminocarbonylmethyl]-benzoic acid] | -27 | -24 | – | – | n.s. | -39 | -35 | -27 | -26 | – | – | – | – | n.s. | – | – | – | – | – |
| Cc1ccc(C(NC(=O)Cc2ccc(C(=O)O)cc2)c2ccccc2)c(N2CCCCC2)c1 (stereo not drawn) [AO, 4-[(4-Methyl-α-phenyl-2-piperidino-benzyl)-aminocarbonylmethyl]-benzoic acid] | – | -17 | -15 | -11 | – | -37 | -34 | -32 | -31 | – | – | – | – | – | – | – | – | – | – |
| O=Cc1ccc(CC(=O)NC(c2ccccc2)c2ccccc2N2CCCCC2)cc1 (stereo not drawn) [AP, 4-[(α-Phenyl-2-piperidino-benzyl)-aminocarbonylmethyl]-benzaldehyde] | -26 | -28 | -22 | -17 | – | – | – | – | – | – | – | – | – | – | – | – | – | – | – |
| CC1CCCCN1c1ccccc1C(NC(=O)Cc1ccc(C(=O)O)cc1)c1ccccc1 (stereo not drawn) [AQ, 4-[(2-(2-Methyl-piperidino)-α-phenyl-benzyl)-aminocarbonylmethyl]-benzoic acid] | -16 | -11 | – | – | n.s. | -32 | -31 | -24 | -19 | – | – | – | – | n.s. | – | – | – | – | – |
| CC1CCCN(c2ccccc2C(NC(=O)Cc2ccc(C(=O)O)cc2)c2ccccc2)C1 (stereo not drawn) [AR, 4-[(2-(3-Methyl-piperidino)-α-phenyl-benzyl)-aminocarbonylmethyl]-benzoic acid] | -13 | -9 | – | – | n.s. | -35 | -30 | -29 | -31 | – | – | – | – | n.s. | – | – | – | – | – |
